In assay [1] the test system is breast cancer cell line MDA-MB-231. Nature of the assay: Anti-proliferative activity in breast cancer cell line MDA-MB-231. Type of assay: cell-based. Particulars: MDA-MB-231 cell line. An excerpt: Anti-proliferative activity against breast cancer cell line MDA-MB-231 was investigated using the compounds synthesized through the above Examples 1 to 4.
The next assay has as its system SH-SY5Y cells. Nature of the assay: Soft agar colony formation assay. Format: cell-based, human. Conditions: cultured 1-2 weeks. The procedure: Anchorage-independent cell growth is a characteristic of cell carcinogenesis and indicates the ability of transformed cells to grow independently of a solid surface. The soft agar colony formation assay is a widely used method to measure the capability of anchorage-independent cell growth in vitro. Thus, the suppressive effect of Compound 9b on Anchorage-independent cell growth by soft agar colony formation assay.
SH-SY5Y cells were seeded in a 6-well plate with 1.2% agar (4×10^5 cells/well) and Compound 9b was added at concentrations of 1 μM, 3 μM and 5 μM and cultured for 1-2 weeks. DMSO (0.5%) was used as a negative control. After incubation, colonies were stained using by 0.05% crystal violet for 10 minutes. The colonies were washed by 3rd distilled water and captured.

The test system of assay [2] is cervical cancer cell line HeLa. The experiment in a line: Anti-proliferative activity in HeLa cell line. Format: cell-based. Particulars: Homo sapiens.
The test system of assay [3] is lung cancer cell line A549. Nature of the assay: Anti-proliferative activity in A549 cell line. Type of assay: cell-based. Particulars: Homo sapiens.
For assay [4], the system named is non-small cell lung cancer cell line H1975. Nature of the assay: Anti-proliferative activity in H1975 cell line. Format: cell-based. Conditions: Homo sapiens, NCI-H1975.
Assay [5] has as its system human neuroblastoma cell line SH-SY5Y. Nature of the assay: Anti-proliferative activity in SH-SY5Y cell line. Conditions: half maximal growth inhibition concentration, after 72 hours. Format: cell-based. The procedure: Anti-proliferative activity against human neuroblastoma cell line SH-SY5Y, an in vitro model of human malignant metastatic neuroblastoma, was investigated using the compounds synthesized through the above Examples 1 to 4.
SH-SY5Y cells were cultured in DMEM (Dulbecco's Modified Eagle's Media) with L-glutamine supplemented with […] of streptomycin, 100 units/mL of penicillin and 10% fetal bovine serum (FBS). The cells were grown to confluence in a humidified atmosphere (37° C., 5% CO2).

A word on the GI50: it is the concentration at which growth is held to half of that of the control. Molecule `O=C(NO)c1ccc(-c2nc3ccccc3[nH]2)cc1` [Compound 5, 4-(1H-benzo[d]imidazol-2-yl)-N-hydroxybenzamide] gave a GI50 in assay [1] (Homo sapiens) of 15.6 µM. That is a double-digit micromolar value.

As to `Cn1c(-c2ccc(C(=O)NO)cc2)nc2ccccc21` [Compound 6a, N-hydroxy-4-(1-methyl-1H-benzo[d]imidazol-2-yl)benzamide], halving of growth in assay [1] (Homo sapiens) (GI50) required 40.3 µM.

For the molecule `CCn1c(-c2ccc(C(=O)NO)cc2)nc2ccccc21` [Compound 6b, 4-(1-ethyl-1H-benzo[d]imidazol-2-yl)-N-hydroxybenzamide], halving of growth in assay [1] (Homo sapiens) (GI50) required 15.6 µM.

The molecule `CCCn1c(-c2ccc(C(=O)NO)cc2)nc2ccccc21` [Compound 6c, N-hydroxy-4-(1-propyl-1H-benzo[d]imidazol-2-yl)benzamide] registered a concentration for 50% growth inhibition (GI50) in assay [1] (Homo sapiens) of 44.6 µM.

With `CCCCn1c(-c2ccc(C(=O)NO)cc2)nc2ccccc21` [Compound 6d, 4-(1-butyl-1H-benzo[d]imidazol-2-yl)-N-hydroxybenzamide], the GI50 in assay [1] (Homo sapiens) amounted to 35.5 µM.

In turn, `O=C(NO)c1ccc(-c2nc3ccccc3o2)cc1` [Compound 9a, 4-(benzo[d]oxazol-2-yl)-N-hydroxybenzamide] yielded a GI50 in assay [1] (Homo sapiens) of 8.31 µM.

Regarding `O=C(NO)c1ccc(-c2nc3ccccc3s2)cc1` [Compound 9b, 4-(benzo[d]thiazol-2-yl)-N-hydroxybenzamide], the GI50 in assay [1] (Homo sapiens) was determined as 3.86 µM; in assay [2] it was 13.5 µM; in assay [3], 15.6 µM; in assay [4], 3.71 µM. In addition, in the assay with SH-SY5Y cells (1 μM, 3 μM and 5 μM), the “ability of SH-SY5Y cells to form colonies” value is given as “decreased in a dose-dependent manner”. Besides, in the assay on SH-SY5Y cells (3 μM), the “anchorage-independent cell growth of SH-SY5Y neuroblastoma” value is “almost completely inhibited”.

Consider `O=C(NO)c1cccc(-c2nc3ccccc3[nH]2)c1` [Compound 13, 3-(1H-benzo[d]amidazol-2-yl)-N-hydroxybenzamide], for which the concentration for 50% growth inhibition (GI50) in assay [1] and in assay [5] was greater than 100 µM each time.

Take `Cn1c(-c2cccc(C(=O)NO)c2)nc2ccccc21` [Compound 14a, N-hydroxy-3-(1-methyl-1H-benzo[d]imidazol-2-yl)benzamide]: the GI50 in assay [1] (Homo sapiens) is greater than 100 µM.

`CCn1c(-c2cccc(C(=O)NO)c2)nc2ccccc21` [Compound 14b, 3-(1-Ethyl-1H-benzo[d]imidazol-2-yl)-N-hydroxybenzamide]: in assay [1] (Homo sapiens), the GI50 is greater than 100 µM.

For the molecule `CCCn1c(-c2cccc(C(=O)NO)c2)nc2ccccc21` [Compound 14c, N-hydroxy-3-(1-propyl-1H-benzo[d]imidazol-2-yl)benzamide], the GI50 in assay [1] (Homo sapiens) is 62.1 µM.

Take `CCCCn1c(-c2cccc(C(=O)NO)c2)nc2ccccc21` [Compound 14d, 3-(1-Butyl-1H-benzo[d]imidazol-2-yl)-N-hydroxybenzamide]: halving of growth in assay [1] (Homo sapiens) (GI50) required 60.8 µM.

As to `O=C(NO)c1cccc(-c2nc3ccccc3o2)c1` [Compound 17a, 3-(Benzo[d]oxazol-2-yl)-N-hydroxybenzamide], in assay [1] (Homo sapiens), the GI50 was found to be 47.9 µM.

In turn, `O=C(NO)c1cccc(-c2nc3ccccc3s2)c1` [Compound 17b, 3-(benzo[d]thiazol-2-yl)-N-hydroxybenzamide] yielded a concentration for 50% growth inhibition (GI50) in assay [1] (Homo sapiens) of 23.1 µM. Against the preceding molecule, the GI50 is about 2.1-fold lower.

On to `O=C(CCCCCCC(=O)Nc1ccccc1)NO` [SAHA, reference compound], for which the GI50 was found to be 3.16 µM in assay [1] and 2.9 µM in assay [5].

These data come from patent publication US12098134B2, “Benzo-heterocyclic compound and composition for preventing or treating cancer disease, containing same as active ingredient” (INDUSTRY ACADEMIC COOPERATION FOUNDATION KEIMYUNG UNIVERSITY, priority 2018, dated 2024).
